Literature values as cited in patent US5185366A, “Method for treatment and prevention of diseases caused by enveloped viruses, including herpes simplex virus types 1 and 2 diseases, using 3,4-dihydroxy-2H-benzopyran-2H-one” (Ohio State University Research Foundation, priority 1990, dated 1993).

What was measured:
HBV DNA polymerase = details: 5-250 μg/mL, Kessler et al.; cited from earlier work
hepatitis B virus (HBV) = details: 5-250 μg/mL, Kessler et al.; cited from earlier work

## C[C@@H]1[C@H](O)[C@@H](C)/C=C/C=C/C=C/C=C/C=C/C=C/C=C/[C@H](O[C@@H]2O[C@H](C)[C@@H](O)[C@H](N)[C@@H]2O)C[C@@H]2O[C@](O)(C[C@@H](O)C[C@@H](O)[C@H](O)CC[C@@H](O)C[C@@H](O)CC(=O)O[C@H]1C)C[C@H](O)[C@H]2C(=O)O [amphotericin B]
HBV DNA polymerase
  HBV DNA polymerase activity: concentration dependent increase in HBV DNA polymerase activity
Hepatitis B virus (HBV)
  effect on HBV particle / envelope: changes in electron microscopic appearance of the virus, increased penetration of negative stain into the lipid envelope, disruption of the particle
  increase in density of HBV: 1.165 to 1.225 g/mL
